Article PMC9618959, “Cisapride induced hypoglycemia via the KCNH6 potassium channel” (Frontiers in Endocrinology, 2022)
pIC50: −log10 of the molar value.

How the values were obtained:
[1] = target: T1, KCNH6 (Homo sapiens, UniProt Q9H252); assay: whole-cell patch-clamp, peak tail current in transfected HEK293 cells; format: cell-based
T1 construct: human KCNH6 gene in pcDNA3.1, transiently expressed in HEK293 cells
T1 sequence (Q9H252 1-958): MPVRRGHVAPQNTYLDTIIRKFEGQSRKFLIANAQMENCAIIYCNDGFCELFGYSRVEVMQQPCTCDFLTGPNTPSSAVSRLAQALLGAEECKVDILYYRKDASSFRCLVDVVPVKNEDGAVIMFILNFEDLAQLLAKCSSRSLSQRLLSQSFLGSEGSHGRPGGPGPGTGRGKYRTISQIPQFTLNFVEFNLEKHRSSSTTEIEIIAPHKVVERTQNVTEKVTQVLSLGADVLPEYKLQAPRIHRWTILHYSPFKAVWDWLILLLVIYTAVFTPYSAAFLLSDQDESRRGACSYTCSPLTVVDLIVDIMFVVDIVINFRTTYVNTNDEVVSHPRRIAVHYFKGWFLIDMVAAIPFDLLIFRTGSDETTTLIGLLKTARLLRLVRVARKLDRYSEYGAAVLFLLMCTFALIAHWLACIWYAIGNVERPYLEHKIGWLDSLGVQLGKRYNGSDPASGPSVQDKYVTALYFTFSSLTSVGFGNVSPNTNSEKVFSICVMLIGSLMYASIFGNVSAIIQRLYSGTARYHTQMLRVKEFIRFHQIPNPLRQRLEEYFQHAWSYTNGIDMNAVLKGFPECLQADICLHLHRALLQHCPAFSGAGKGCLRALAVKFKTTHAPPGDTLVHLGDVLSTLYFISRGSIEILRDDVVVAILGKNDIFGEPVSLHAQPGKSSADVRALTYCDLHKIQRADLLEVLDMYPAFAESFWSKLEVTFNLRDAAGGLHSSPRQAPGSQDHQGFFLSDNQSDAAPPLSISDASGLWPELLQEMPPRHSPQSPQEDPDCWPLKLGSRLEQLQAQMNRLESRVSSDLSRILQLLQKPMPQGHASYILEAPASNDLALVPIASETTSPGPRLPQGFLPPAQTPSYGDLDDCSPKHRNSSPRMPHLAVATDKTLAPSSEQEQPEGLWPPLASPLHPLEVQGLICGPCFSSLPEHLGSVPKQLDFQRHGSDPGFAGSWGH

[2] = target: T1, KCNH6; assay: whole-cell patch-clamp in transfected HEK293 cells (inhibitor control); format: cell-based

**Q.** With COc1cc(N)c(Cl)cc1C(=O)NC1CCN(CCCOc2ccc(F)cc2)CC1OC (centres unmarked) [cisapride] as the compound, how does the pIC50 [1] read?
**A.** The pIC50 was 8.22.

**Q.** Which “whole-cell patch-clamp in transfected HEK293 cells (inhibitor control)” value [2] does the source give for CN(CCOc1ccc(NS(C)(=O)=O)cc1)CCc1ccc(NS(C)(=O)=O)cc1 [dofetilide] here?
**A.** The value was “E4031 and dofetilide were used as inhibitor controls”.
